“Also recorded” adds a separate entry of the source. Where two headings read alike, the source gives them in different places.
Columns and labels:
[1] = biological target: T1, SxC^− transporter (system xC^− cystine-glutamate antiporter) (Rattus norvegicus, UniProt A0A8I6AB70); assay: Microglial glutamate release assay (LPS-activated primary microglia); format: cell-based
T1 construct: endogenous in cells
Experimental: Primary cultures of rat microglia were established as described previously. Microglia were seeded at 375,000/cm^2 in 96-well plates with minimal essential medium with Earle’s salts (MEM) containing 10% fetal bovine serum (FBS). After an overnight plating, the cultures were washed twice with serum-free MEM, and then a third volume was applied containing test substances at the indicated concentrations; MEM contains 100 μM (Cys)2. Immediately thereafter, lipopolysaccharide (LPS) was added to some wells at 100 ng/ml. This concentration was selected for this particular lot of LPS as the concentration producing a slightly submaximal response (i.e., 2–5% below the maximum). After 18 h, 50 μl of medium was transferred from each well to a black, opaque-bottomed 96-well plate and combined with 50 μl of assay reagent from a Amplex® Red Glutamic Acid Assay kit (ThermoFisher). A standard curve was generated with a range of concentrations of L-glutamate (monosodium salt). The assay reagent contained 0.25 U/ml horseradish peroxidase, 0.08 U/ml L-glutamate oxidase, 0.5 U/ml L-glutamate/pyruvate transaminase, and 200 μM L-alanine. After 30 min, fluorescence was measured in a Molecular Devices SpectraMax 3 with excitation at 550 nm and emission at 590 nm; values were interpolated into the standard curve. The microglial medium was also assayed for nitric oxide using Griess reagent to confirm that none of the experimental compounds was a general inhibitor of microglial activation. We also considered whether any compound was toxic to microglia. The microglia remaining in the 96-well plates were combined with 3-(4,5-dimethylthiazol-2-yl)-2,5-diphenyl-2H-tetrazolium bromide (MTT) at a final concentration of 125 μg/ml (in MEM/FBS) and incubated for 30 min at 37 °C and 5.5% CO2. After removal of the medium, 100 μl of dimethyl sulfoxide (DMSO) was added to dissolve the formazan crystals, and absorbance at 540 nm was measured in the SpectraMax 3; the mean background obtained in wells containing DMSO alone was subtracted from each experimental value.
Data were analyzed in GraphPad Prism 9.5.1. Nonlinear regression was performed on the glutamate release assay data to derive IC50 values and the graphed plot lines. ANOVA indicated post hoc tests were applied to dosimetric data; P < 0.05 was considered significant.
Fig. 2 Microglial Glu release assay. Rat primary microglia were activated with 100 ng/ml LPS alone or immediately following application of the indicated concentrations of test substances. After 18 h in the presence of LPS, an aliquot of medium was assayed for Glu via a […]. A First generation of compounds was created by simply varying the position of a methyl group around an aromatic ring, comparing activity to 3,5-DBT. B Additional modifications were evaluated, including several that simply extend the size of the structure hypothesized to fit into the hydrophobic pocket of the SxC^− transporter. Values are represented relative to the Glu detected in cultures treated with LPS alone; each data point represents a mean of 4 cultures. Nonlinear regression was performed to provide the plot lines

[2] = Solubility in aqueous media (observation); format: physicochemical
[3] = Light sensitivity (observation); format: physicochemical
[4] = biological target: T1, SxC^− transporter (system xC^− cystine-glutamate antiporter); assay: Cystine uptake assay (selenocystine) in LPS-activated primary microglia; format: cell-based; conditions: LPS 100 ng/ml 15 h, selenocystine uptake 30 min, 0.03-300 μM
Experimental: Cystine uptake was measured essentially as per Shimomura et al. using the Cystine Uptake Assay Kit (DOJINDO). Primary microglia were seeded as per glutamate release assays, and some cultures were treated the following day with 100 ng/ml LPS. After 15 h, the cultures were washed twice with Hank’s balanced salt solution (HBSS) and then incubated 5 min at 37 °C in HBSS containing fresh LPS and test substances at the indicated concentrations. The cultures were then exposed to HBSS containing selenocystine (DOJINDO) for 30 min at 37 °C, after which they were washed three times with ice-cold phosphate-buffered saline and then fixed in 50 μl methanol. A detection buffer comprising fluorescein O,O’-diacrylate and reducing agent (DOJINDO) was then added, and the plate was sealed and incubated for 30 min at 37 °C. Reaction product was then assayed in the Molecular Devices SpectraMax 3 with excitation at 490 nm and emission at 535 nm. Blanks consisted of wells containing only cells that had been washed, fixed with methanol, and incubated with the detection buffer, and the values from these wells were subtracted from the experimental values.
Fig. 5 35DPTA7 and 35DPTSA12 inhibit cystine uptake in microglia. Rat primary microglia were activated with 100 ng/ml LPS alone for 15 h, then the indicated concentrations of test substances were applied during application of selenocystine. […]

primary cortical neurons = assay: Neurotoxicity assay: microglia transwell / cortical neuron coculture, MTT; format: cell-based, rat; conditions: microglia treated with compound + LPS 100 ng/ml, 1 h, then 18 h with cortical neurons
Experimental: Primary cultures of rat cortical neurons were established as described previously; incorporation of both a serum-free medium and an intermittent treatment with cytosine arabinoside results in cultures that are among the purest neuronal primary cultures available. The cultures were seeded in 24-well plates, and 8 days later primary microglia were plated in transwell inserts (12-mm diameter) at 375,000/cm^2, washed to serum-free MEM, and treated with test substances followed immediately by LPS (100 ng/ml). After 1 h, the inserts were placed into the wells of the neuronal cultures. After an additional 18 h, the inserts were removed, and neuronal survival was evaluated by MTT assay as described above. Values are represented relative to the MTT signal produced in cultures exposed to untreated microglia.
Fig. 6 35DPTA7 and 35DPTSA12 reduced the neurotoxicity of activated microglia. Primary microglia were plated on permeable membranes in basket-type cell-culture inserts. Some cultures were treated with the indicated concentrations of 35DBTA7 or 35DBTSA12, followed immediately by application of LPS (100 ng/ml); some cultures were untreated and some received LPS alone. After 1 h, the inserts were placed into wells containing primary cortical neurons. After an additional 18 h, neuronal survival was determined by MTT assay. […]

[5] = rat primary microglia, LPS 100 ng/ml, 18 h
[6] = rat primary microglia, LPS 100 ng/ml, 18 h, nonlinear regression in GraphPad Prism, read-out: IC50 ± SEM, inhibition of microglial Glu release

T1 sequence (A0A8I6AB70 1-502): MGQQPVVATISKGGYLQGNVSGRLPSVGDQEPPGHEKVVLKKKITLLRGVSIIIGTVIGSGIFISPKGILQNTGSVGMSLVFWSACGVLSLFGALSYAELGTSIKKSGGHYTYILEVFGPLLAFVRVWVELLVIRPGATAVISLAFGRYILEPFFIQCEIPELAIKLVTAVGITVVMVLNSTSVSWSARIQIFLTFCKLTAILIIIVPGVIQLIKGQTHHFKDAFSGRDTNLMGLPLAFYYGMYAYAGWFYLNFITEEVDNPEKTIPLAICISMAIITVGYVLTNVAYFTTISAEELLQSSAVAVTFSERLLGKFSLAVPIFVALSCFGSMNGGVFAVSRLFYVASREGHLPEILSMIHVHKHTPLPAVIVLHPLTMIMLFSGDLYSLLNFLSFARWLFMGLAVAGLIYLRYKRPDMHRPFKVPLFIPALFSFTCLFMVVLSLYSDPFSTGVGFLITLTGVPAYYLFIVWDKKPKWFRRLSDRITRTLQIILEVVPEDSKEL
T1 sequence (Q794F9 whole entry partner): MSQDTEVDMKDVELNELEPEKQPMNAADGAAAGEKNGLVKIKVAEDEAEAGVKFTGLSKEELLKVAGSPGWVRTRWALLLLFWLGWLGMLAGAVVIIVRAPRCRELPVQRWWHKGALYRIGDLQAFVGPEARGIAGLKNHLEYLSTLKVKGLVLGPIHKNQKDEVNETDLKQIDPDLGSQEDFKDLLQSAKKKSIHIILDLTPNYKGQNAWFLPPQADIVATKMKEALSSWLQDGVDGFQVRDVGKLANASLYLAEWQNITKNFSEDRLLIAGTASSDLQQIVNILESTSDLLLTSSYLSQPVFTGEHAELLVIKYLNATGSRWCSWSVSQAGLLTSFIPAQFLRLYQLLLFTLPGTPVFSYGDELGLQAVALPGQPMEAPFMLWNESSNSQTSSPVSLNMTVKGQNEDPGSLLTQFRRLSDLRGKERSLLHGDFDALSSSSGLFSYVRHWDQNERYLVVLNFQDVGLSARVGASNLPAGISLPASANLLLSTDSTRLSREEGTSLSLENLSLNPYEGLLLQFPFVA

| Inhibition of SxC^− / microglial Glu release (in words) [1, 5] | IC50 [1, 6] | Compound | further results |
| --- | --- | --- | --- |
| – | 1.03 ± 0.44 µM | Cc1ccccc1C(=O)N[C@@H](Cc1cc(Br)c(O)c(Br)c1)C(=O)O [35DBTA1] | – |
| – | 5.79 ± 3.96 µM | Cc1cccc(C(=O)N[C@@H](Cc2cc(Br)c(O)c(Br)c2)C(=O)O)c1 [35DBTA2] | – |
| greatest potency | 0.159 ± 0.0244 µM | Cc1ccc(C(=O)N[C@@H](Cc2cc(Br)c(O)c(Br)c2)C(=O)O)cc1 [35DBTA3] | – |
| – | 25.5 ± 4.59 µM | CCC(=O)N[C@@H](Cc1cc(Br)c(O)c(Br)c1)C(=O)O [35DBTA5] | – |
| quite effective | 1.61 ± 0.377 µM | O=C(N[C@@H](Cc1cc(Br)c(O)c(Br)c1)C(=O)O)c1ccc(-c2ccccc2)cc1 [35DBTA7] | Inhibition of cystine uptake into microglia (in words) [4]: dose-dependent inhibition; Neuronal survival (MTT) in presence of LPS-activated microglia (in words) (primary cortical neurons): elevated the survival signal; also recorded: quite effective |

Continued, compound first:

| Compound | Inhibition of SxC^− / microglial Glu release (in words) [1, 5] | IC50 [1, 6] | further results |
| --- | --- | --- | --- |
| N[C@@H](Cc1nc(I)[nH]c1I)C(=O)O [2,5-DIH, 2,5-diiodohistidine] | completely inactive | – | – |
| N[C@@H](Cc1cc(Br)c(O)c(Br)c1)C(=O)O [3,5-DBT, 3,5-dibromotyrosine] | potent inhibition | – | IC50 [1]: 3.49 ± 0.779 µM; Solubility in water / aqueous solutions (in words) [2]: high solubility in water as a salt |
| N[C@@H](Cc1cc(I)c(O)c(I)c1)C(=O)O [3,5-DIT] | – | 0.665 ± 0.127 µM | Light sensitivity [3]: exceedingly light sensitive |
| O=C(O)[C@H](Cc1cc(Br)c(O)c(Br)c1)NC(=O)C(F)(F)F [35DBTA6] | trend toward inhibitory properties at low concentrations but produced a reversal of that trend above 3 μM | – | – |
| O=C(N[C@@H](Cc1cc(Br)c(O)c(Br)c1)C(=O)O)c1ccc(-c2ccc(-c3ccccc3)cc2)cc1 [35DBTA8] | quite effective | 0.172 ± 0.0056 µM | Solubility in water / aqueous solutions (in words) [2]: poorly soluble; Solubility of the disodium salt (carboxylate and phenoxide) in aqueous media ([2]; disodium salt): poorly soluble |
| N[C@@H](Cc1ccc(O)cc1)C(=O)O [Tyr, L-tyrosine, reference compound] | does not possess any inhibitory properties | – | – |
